Measured values taken from US9127015B2, “Tricyclopyrazole derivatives” (NERVIANO MEDICAL SCIENCES S.R.L., priority 2009, dated 2015).
Several values for one entry are separate records, joined by “and”; a condition that tells them apart may be missing. Equal entries are not always repeated.

Tests used:
Assay in all cases: Kinase inhibition assay, IC50 (Table A)
Assay type in all cases: biochemical
KIT = KIT (Homo sapiens, UniProt P10721); conditions: Enzyme KIT
Protocol: (§1) The inhibiting activity of putative kinase inhibitors and the potency of selected compounds is determined through a method of assay based on the use of the Kinase-Glo® Luminescent Kinase Assay (commercially available from Promega corporation and described in Koresawa, M. and Okabe, T. (2004) High-throughput screening with quantitation of ATP consumption: A universal non-radioisotope, homogeneous assay for protein kinase. Assay Drug Dev. Technol. 2, 153-60).
(§2) The inhibitory activity of putative kinase inhibitors and the potency of selected compounds were also determined using a trans-phosphorylation assay.
(§3) Specific peptide or protein substrates are trans-phosphorylated by their specific ser-thr or tyr kinase in the presence of ATP traced with ^33P-γ-ATP, and in the presence of their own optimal buffer and cofactors. At the end of the phosphorylation reaction, more than 98% unlabeled ATP and radioactive ATP is captured by an excess of the ion exchange dowex resin; the resin then settles down to the bottom of the reaction plate by gravity. Supernatant is subsequently withdrawn and transferred into a counting plate, then evaluated by β-counting.
(§4) Reaction conditions are target (enzyme) dependent and thus undergo individual adaptations. Also the buffer conditions may vary depending on the kinase of interest. The assay can be used with virtually any kinase and substrate combination and is suitable for all type of protein kinases, such as ABL, ACK1, AKT1, ALK, AUR1, AUR2, BRK, BUB1, CDC7/DBF4, CDK21CYCA, CHK1, CK2, EEF2K, EGFR1, EphA2, EphB4, ERK2, FAK, FGFR1, FLT3, GSK3beta, Haspin, IGFR1, IKK2, IR, JAK1, JAK2, JAK3, KIT, LCK, LYN, MAPKAPK2, MELK, MET, MNK2, MPSI, MST4, NEK6, NIM1, P38alpha, PAK-4, PDGFR, PDK1, PERK, PIM1, PIM2, PKAalpha, PKCbeta, PLK1, RET, ROS1, SULU1, Syk, TLK2, TRKA, TYK, VEGFR2, VEGFR3, ZAP70.

ACK1 = ACK1 (Homo sapiens, UniProt Q07912); conditions: Enzyme ACK1
ACK1, sequence (Q07912 whole entry): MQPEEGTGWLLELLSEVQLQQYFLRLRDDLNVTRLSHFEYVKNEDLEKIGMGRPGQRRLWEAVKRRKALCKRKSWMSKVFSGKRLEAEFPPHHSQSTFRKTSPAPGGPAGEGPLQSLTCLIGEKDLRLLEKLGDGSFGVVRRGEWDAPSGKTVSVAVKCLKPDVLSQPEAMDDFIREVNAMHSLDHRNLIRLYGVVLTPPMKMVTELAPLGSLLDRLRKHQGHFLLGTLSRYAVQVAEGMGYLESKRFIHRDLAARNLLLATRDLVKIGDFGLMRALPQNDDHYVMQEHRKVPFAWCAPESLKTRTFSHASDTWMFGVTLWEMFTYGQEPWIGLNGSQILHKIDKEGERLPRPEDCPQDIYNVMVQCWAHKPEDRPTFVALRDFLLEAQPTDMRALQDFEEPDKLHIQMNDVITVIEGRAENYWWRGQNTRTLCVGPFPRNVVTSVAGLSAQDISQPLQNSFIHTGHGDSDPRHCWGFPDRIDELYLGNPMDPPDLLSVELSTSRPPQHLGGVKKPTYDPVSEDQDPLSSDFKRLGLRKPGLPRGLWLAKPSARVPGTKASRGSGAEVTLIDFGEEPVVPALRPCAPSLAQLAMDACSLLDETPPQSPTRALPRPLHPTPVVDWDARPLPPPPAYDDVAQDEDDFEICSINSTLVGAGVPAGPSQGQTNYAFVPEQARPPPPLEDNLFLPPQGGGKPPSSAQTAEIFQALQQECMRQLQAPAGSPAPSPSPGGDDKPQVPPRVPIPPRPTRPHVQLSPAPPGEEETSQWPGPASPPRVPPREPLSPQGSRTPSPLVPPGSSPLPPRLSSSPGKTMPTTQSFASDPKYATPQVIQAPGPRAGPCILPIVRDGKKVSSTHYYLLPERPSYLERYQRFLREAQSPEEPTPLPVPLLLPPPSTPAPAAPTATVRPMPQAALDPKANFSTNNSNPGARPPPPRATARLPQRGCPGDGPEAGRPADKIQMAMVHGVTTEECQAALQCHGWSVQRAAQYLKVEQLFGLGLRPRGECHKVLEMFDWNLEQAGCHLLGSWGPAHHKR
Protocol: as §1, §2, §3, §4

ABL = ABL (Homo sapiens, UniProt P00519); conditions: Enzyme ABL
ABL, sequence (P00519 whole entry): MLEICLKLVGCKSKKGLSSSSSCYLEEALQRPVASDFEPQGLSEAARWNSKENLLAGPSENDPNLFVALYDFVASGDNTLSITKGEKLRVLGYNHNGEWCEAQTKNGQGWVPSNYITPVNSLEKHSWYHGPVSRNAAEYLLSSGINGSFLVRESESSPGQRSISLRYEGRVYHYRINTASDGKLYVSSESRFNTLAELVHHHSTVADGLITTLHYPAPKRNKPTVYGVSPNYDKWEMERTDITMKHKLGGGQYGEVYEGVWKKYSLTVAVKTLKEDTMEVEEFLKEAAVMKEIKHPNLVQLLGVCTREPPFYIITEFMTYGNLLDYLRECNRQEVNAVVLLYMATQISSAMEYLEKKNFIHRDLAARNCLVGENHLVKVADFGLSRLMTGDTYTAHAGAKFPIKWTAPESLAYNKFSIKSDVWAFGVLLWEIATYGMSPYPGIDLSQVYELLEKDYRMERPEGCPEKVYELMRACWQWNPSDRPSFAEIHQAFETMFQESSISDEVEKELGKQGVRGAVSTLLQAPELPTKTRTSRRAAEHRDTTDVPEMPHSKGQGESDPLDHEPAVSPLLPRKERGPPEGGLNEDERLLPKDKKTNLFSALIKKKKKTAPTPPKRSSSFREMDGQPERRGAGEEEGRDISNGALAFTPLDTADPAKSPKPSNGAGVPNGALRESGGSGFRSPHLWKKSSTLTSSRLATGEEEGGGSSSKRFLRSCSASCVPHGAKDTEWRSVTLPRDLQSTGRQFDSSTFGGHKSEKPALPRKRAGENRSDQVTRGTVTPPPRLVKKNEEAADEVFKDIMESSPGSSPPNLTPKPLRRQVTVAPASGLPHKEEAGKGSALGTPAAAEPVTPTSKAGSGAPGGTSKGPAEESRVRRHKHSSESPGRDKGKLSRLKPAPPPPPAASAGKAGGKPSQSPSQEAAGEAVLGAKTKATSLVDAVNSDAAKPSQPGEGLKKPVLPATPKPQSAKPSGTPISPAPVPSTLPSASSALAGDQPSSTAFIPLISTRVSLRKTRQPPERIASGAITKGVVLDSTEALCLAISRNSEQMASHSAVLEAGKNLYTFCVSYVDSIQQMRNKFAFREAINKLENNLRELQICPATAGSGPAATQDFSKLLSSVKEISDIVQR
Protocol: as §1, §2, §3, §4

BRK = BRK (Homo sapiens, UniProt Q13882); conditions: Enzyme BRK
BRK, sequence (Q13882 whole entry): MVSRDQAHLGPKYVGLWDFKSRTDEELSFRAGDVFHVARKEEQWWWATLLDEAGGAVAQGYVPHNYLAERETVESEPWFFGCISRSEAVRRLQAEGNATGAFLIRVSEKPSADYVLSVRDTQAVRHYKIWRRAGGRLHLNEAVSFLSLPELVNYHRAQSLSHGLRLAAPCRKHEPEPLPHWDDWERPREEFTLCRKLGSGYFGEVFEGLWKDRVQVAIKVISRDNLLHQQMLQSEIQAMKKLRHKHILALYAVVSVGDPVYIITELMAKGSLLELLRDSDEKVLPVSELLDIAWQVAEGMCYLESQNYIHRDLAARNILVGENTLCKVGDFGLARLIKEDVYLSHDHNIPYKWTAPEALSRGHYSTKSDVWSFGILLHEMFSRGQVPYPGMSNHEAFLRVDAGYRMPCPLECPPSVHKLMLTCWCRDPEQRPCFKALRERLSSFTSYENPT
Protocol: as §1, §2, §3, §4

LCK = LCK (Homo sapiens, UniProt P06239); conditions: Enzyme LCK
LCK, sequence (P06239 whole entry): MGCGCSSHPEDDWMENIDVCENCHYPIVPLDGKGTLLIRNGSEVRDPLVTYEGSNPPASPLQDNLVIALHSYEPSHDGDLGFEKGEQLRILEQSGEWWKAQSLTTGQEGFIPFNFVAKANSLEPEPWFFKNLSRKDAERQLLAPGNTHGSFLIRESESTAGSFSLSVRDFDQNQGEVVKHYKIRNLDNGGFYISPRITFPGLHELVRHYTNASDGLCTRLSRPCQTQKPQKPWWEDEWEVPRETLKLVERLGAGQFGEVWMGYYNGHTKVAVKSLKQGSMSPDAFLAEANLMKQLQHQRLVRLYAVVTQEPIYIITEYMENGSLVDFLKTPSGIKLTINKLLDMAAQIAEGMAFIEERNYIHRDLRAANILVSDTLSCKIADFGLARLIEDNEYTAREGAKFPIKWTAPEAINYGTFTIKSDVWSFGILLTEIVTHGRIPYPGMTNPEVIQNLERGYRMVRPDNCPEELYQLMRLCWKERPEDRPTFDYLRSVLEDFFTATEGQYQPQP
Protocol: as §1, §2, §3, §4

KIT, sequence (P10721 26-976): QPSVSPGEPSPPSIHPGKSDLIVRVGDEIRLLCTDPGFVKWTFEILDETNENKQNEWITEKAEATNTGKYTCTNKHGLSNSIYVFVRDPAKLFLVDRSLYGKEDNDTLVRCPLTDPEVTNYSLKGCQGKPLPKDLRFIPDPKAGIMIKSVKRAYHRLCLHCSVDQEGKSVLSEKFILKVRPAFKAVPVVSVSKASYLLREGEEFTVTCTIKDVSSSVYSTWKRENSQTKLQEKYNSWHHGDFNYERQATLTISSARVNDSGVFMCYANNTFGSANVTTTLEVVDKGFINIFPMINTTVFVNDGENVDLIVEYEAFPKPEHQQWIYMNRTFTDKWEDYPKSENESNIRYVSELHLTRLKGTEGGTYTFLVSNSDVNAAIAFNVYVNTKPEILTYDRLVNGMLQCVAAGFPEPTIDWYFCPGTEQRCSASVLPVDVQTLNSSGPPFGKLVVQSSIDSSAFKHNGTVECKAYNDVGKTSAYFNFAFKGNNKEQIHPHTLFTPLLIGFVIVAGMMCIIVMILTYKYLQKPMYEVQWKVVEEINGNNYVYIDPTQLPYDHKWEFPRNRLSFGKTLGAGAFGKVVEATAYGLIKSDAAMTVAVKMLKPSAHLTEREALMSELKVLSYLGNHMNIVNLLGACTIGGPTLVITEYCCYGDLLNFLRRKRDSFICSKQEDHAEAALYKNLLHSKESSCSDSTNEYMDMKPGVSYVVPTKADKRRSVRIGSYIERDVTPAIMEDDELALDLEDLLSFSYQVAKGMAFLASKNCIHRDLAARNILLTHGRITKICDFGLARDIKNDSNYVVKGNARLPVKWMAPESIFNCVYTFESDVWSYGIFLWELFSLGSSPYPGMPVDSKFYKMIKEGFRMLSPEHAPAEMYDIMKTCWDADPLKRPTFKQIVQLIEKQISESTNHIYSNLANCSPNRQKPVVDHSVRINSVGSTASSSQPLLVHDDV

| Structure (SMILES) | IC50 (ACK1) | further results |
| --- | --- | --- |
| O=C(NCc1cccs1)c1cc2n(c1)CCc1c(NC(=O)c3ccco3)n[nH]c1-2 [Example A9-M1-B16] | – | IC50 (KIT): 850 nM |
| Cc1ccc(C(=O)Nc2n[nH]c3c2CCn2cc(C(=O)NCC(C)C)cc2-3)c(C)c1 [Example A35-M1-B39] | 2850 nM | – |
| Cc1ccc(C(=O)Nc2n[nH]c3c2CCn2cc(C(=O)NC(C)C)cc2-3)c(C)c1 [Example A35-M1-B10] | 3130 nM | – |
| COCCNC(=O)c1cc2n(c1)CCCc1c(NC(=O)c3ccc(C)cc3C)n[nH]c1-2 [Example A35-M2-B33] | 3820 nM | – |
| CCCN1CCN(C(=O)c2cc3n(c2)CCc2c(NC(=O)c4ccc(C)cc4C)n[nH]c2-3)CC1 [Example A35-M1-B32] | 1210 nM | – |
| CC(C)CNC(=O)c1cc2n(c1)CCc1c(NC(=O)c3ccccc3Cl)n[nH]c1-2 [Example A5-M1-B39] | 1940 nM | – |
| CC(C)CNC(=O)c1cc2n(c1)CCCc1c(NC(=O)C(C)C)n[nH]c1-2 [Example A27-M2-B39] | 3170 nM | – |
| O=C(Nc1n[nH]c2c1CCn1cc(C(=O)N3CCOCC3)cc1-2)c1ccccc1Cl [Example A5-M1-B7] | 1430 nM | – |
| Cc1ccccc1C(=O)Nc1n[nH]c2c1CCn1cc(C(=O)N3CCC(N4CCCCC4)CC3)cc1-2 [Example A21-M1-B34] | 890 nM | IC50 (ABL): 5340 nM; IC50 (BRK): 5060 nM |
| CCN1CCN(C(=O)c2cc3n(c2)CCc2c(NC(=O)c4ccccc4Cl)n[nH]c2-3)CC1 [Example A5-M1-B37] | 1000 nM | IC50 (ABL): 5100 nM; IC50 (BRK): 5770 nM |
| O=C(NCc1ccccn1)c1cc2n(c1)CCCc1c(NC(=O)c3ccccc3Cl)n[nH]c1-2 [Example A5-M2-B26] | 4840 nM | – |
| Cc1ccc(C(=O)Nc2n[nH]c3c2CCn2cc(C(=O)NCC4CC4)cc2-3)c(C)c1 [Example A35-M1-B41] | 2870 nM | – |
| COCCNC(=O)c1cc2n(c1)CCCc1c(NC(=O)c3ccccc3Cl)n[nH]c1-2 [Example A5-M2-B33] | 2470 nM | – |
| Cc1ccc(C(=O)Nc2n[nH]c3c2CCn2cc(C(=O)N4CCCCC4)cc2-3)c(C)c1 [Example A35-M1-B42] | 2200 nM | – |
| O=C(NCC1CC1)c1cc2n(c1)CCc1c(NC(=O)c3ccccc3Cl)n[nH]c1-2 [Example A5-M1-B41] | 960 nM | IC50 (ABL): 400 nM; IC50 (BRK): 4350 nM; IC50 (KIT): 1830 nM; IC50 (LCK): 1150 nM |
| O=C(NCC1CC1)c1cc2n(c1)CCc1c(NC(=O)c3c(Cl)cccc3Cl)n[nH]c1-2 [Example A38-M1-B41] | – | IC50 (LCK): 4130 nM |
| O=C(Nc1n[nH]c2c1CCn1cc(C(=O)N3CCCC3)cc1-2)c1ccccc1F [Example A20-M1-B8] | 1040 nM | IC50 (ABL): 2430 nM; IC50 (KIT): 2020 nM |
| CCN(CC)C(=O)c1cc2n(c1)CCc1c(NC(=O)c3ccccc3C)n[nH]c1-2 [Example A21-M1-B17] | 1410 nM | – |
| O=C(NCCc1ccc(Cl)cc1)c1cc2n(c1)CCc1c(NC(=O)c3ccco3)n[nH]c1-2 [Example A9-M1-B13] | – | IC50 (KIT): 5850 nM |
| O=C(NCC1CC1)c1cc2n(c1)CCCc1c(NC(=O)c3c(Cl)cccc3Cl)n[nH]c1-2 [Example A38-M2-B41] | 2820 nM | – |
| Cc1ccccc1C(=O)Nc1n[nH]c2c1CCCn1cc(C(=O)NCC3CC3)cc1-2 [Example A21-M2-B41] | 1560 nM | – |
| CCCN1CCN(C(=O)c2cc3n(c2)CCc2c(NC(=O)c4ccccc4Cl)n[nH]c2-3)CC1 [Example A5-M1-B32] | 1380 nM | – |
| CC(C)N1CCN(C(=O)c2cc3n(c2)CCc2c(NC(=O)c4ccccc4Cl)n[nH]c2-3)CC1 [Example A5-M1-B40] | 1730 nM | – |
| Cc1ccc(C(=O)Nc2n[nH]c3c2CCn2cc(C(=O)N4CCOCC4)cc2-3)c(C)c1 [Example A35-M1-B7] | 5910 nM | – |
| O=C(NCc1ccncc1)c1cc2n(c1)CCc1c(NC(=O)c3ccccc3Cl)n[nH]c1-2 [Example A5-M1-B25] | 1920 nM | – |
| Cc1ccccc1C(=O)Nc1n[nH]c2c1CCn1cc(C(=O)N3CCCC3)cc1-2 [Example A21-M1-B8] | 630 nM | IC50 (ABL): 4940 nM |
| Cc1cc(C)c(C(=O)Nc2n[nH]c3c2CCn2cc(C(=O)N4CCCC4)cc2-3)c(C)c1 [Example A39-M1-B8] | 750 nM | – |

| Structure (SMILES) | IC50 (ACK1) | further results |
| --- | --- | --- |
| Cc1cc(C)c(C(=O)Nc2n[nH]c3c2CCn2cc(C(=O)N4CCC(N5CCCCC5)CC4)cc2-3)c(C)c1 [Example A39-M1-B34] | 5540 nM | – |
| COc1ccccc1C(=O)Nc1n[nH]c2c1CCn1cc(C(=O)N3CCCC3)cc1-2 [Example A6-M1-B8] | 1890 nM | – |
| Cc1ccccc1C(=O)Nc1n[nH]c2c1CCn1cc(C(=O)N3CCSCC3)cc1-2 [Example A21-M1-B38] | 2040 nM | IC50 (BRK): 6300 nM |
| O=C(Nc1n[nH]c2c1CCn1cc(C(=O)N3CCCCC3)cc1-2)c1ccccc1Cl [Example A5-M1-B42] | 440 nM | IC50 (ABL): 1790 nM; IC50 (BRK): 3640 nM; IC50 (KIT): 6610 nM |
| CC(C)NC(=O)c1cc2n(c1)CCc1c(NC(=O)c3ccccc3Cl)n[nH]c1-2 [Example A5-M1-B10] | 3250 nM | – |
| Cc1ccc(C(=O)Nc2n[nH]c3c2CCCn2cc(C(=O)NCC(C)C)cc2-3)c(C)c1 [Example A35-M2-B39] | 1410 nM | – |
| C=CCNC(=O)c1cc2n(c1)CCCc1c(NC(=O)c3ccccc3Cl)n[nH]c1-2 [Example A5-M2-B36] | 740 nM | – |
| CCCN1CCN(C(=O)c2cc3n(c2)CCc2c(NC(=O)c4ccccc4F)n[nH]c2-3)CC1 [Example A20-M1-B32] | 3060 nM | – |
| CCN(CC)C(=O)c1cc2n(c1)CCc1c(NC(=O)c3ccccc3Cl)n[nH]c1-2 [Example A5-M1-B17] | 2160 nM | – |
| O=C(NCCN1CCCCC1)c1cc2n(c1)CCc1c(NC(=O)c3ccccc3Cl)n[nH]c1-2 [Example A5-M1-B31] | 3160 nM | – |
| CN1CCN(c2ccc(C(=O)Nc3n[nH]c4c3CCn3cc(C(=O)N(C)C)cc3-4)cc2)CC1 [Example A16-M1-B19] | – | IC50 (KIT): 4470 nM |
| C=CCNC(=O)c1cc2n(c1)CCCc1c(NC(=O)c3ccc(C)cc3C)n[nH]c1-2 [Example A35-M2-B36] | 3980 nM | – |
| O=C(Nc1n[nH]c2c1CCn1cc(C(=O)N3CCSCC3)cc1-2)c1ccccc1Cl [Example A5-M1-B38] | 2160 nM | – |
| O=C(NCc1ccccn1)c1cc2n(c1)CCc1c(NC(=O)c3ccccc3Cl)n[nH]c1-2 [Example A5-M1-B26] | 3040 nM | – |
| O=C(NCc1cccs1)c1cc2n(c1)CCc1c(NC(=O)c3ccc4c(c3)OCO4)n[nH]c1-2 [Example A11-M1-B16] | – | IC50 (KIT): 2660 nM |
| O=C(NC1CC1)c1cc2n(c1)CCc1c(NC(=O)c3ccccc3Cl)n[nH]c1-2 [Example A5-M1-B30] | 4710 nM | – |
| C=CCNC(=O)c1cc2n(c1)CCc1c(NC(=O)c3ccccc3C)n[nH]c1-2 [Example A21-M1-B36] | 3340 nM | IC50 (ABL): 3230 nM; IC50 (KIT): 5030 nM; IC50 (LCK): 5140 nM |
| CC(C)CNC(=O)c1cc2n(c1)CCCc1c(NC(=O)c3ccccc3Cl)n[nH]c1-2 [Example A5-M2-B39] | 550 nM | – |
| CCC(C)NC(=O)c1cc2n(c1)CCc1c(NC(=O)c3ccccc3Cl)n[nH]c1-2 (centres unmarked) [Example A5-M1-B27] | 2400 nM | – |
| O=C(Nc1n[nH]c2c1CCn1cc(C(=O)N3CCCC3)cc1-2)c1ccccc1Cl [Example A5-M1-B8] | 630 nM and 480 nM | IC50 (ABL): 1860 nM and 2230 nM; IC50 (KIT): 5980 nM |
| C=CCNC(=O)c1cc2n(c1)CCc1c(NC(=O)c3ccccc3Cl)n[nH]c1-2 [Example A5-M1-B36] | 4120 nM | – |
| Cc1ccccc1C(=O)Nc1n[nH]c2c1CCn1cc(C(=O)NCC3CC3)cc1-2 [Example A21-M1-B41] | 2450 nM | – |
| O=C(NCc1cccs1)c1cc2n(c1)CCc1c(NC(=O)c3cccc(F)c3)n[nH]c1-2 [Example A8-M1-B16] | – | IC50 (KIT): 2680 nM |
| O=C(NCCN1CCCCC1)c1cc2n(c1)CCCc1c(NC(=O)c3ccccc3Cl)n[nH]c1-2 [Example A5-M2-B31] | 3510 nM | – |
| O=C(NCC1CC1)c1cc2n(c1)CCCc1c(NC(=O)c3ccccc3Cl)n[nH]c1-2 [Example A5-M2-B41] | 440 nM and 240 nM | – |
| O=C(NC1CCCC1)c1cc2n(c1)CCc1c(NC(=O)c3ccccc3Cl)n[nH]c1-2 [Example A5-M1-B28] | 4330 nM | – |
| Cc1ccc(C(=O)Nc2n[nH]c3c2CCn2cc(C(=O)NC4CC4)cc2-3)c(C)c1 [Example A35-M1-B30] | 6560 nM | – |
